What all share (type): cell-based, human
One series has as its system SOD. As to the kind of experiment: SOD activity (rate of cytochrome c reduction) in BET1A cells. Here is the method:
Cell Culture. BET1A, a human bronchial epithelial cell line, was cultured in serum-free Lechner and […] medium (LHC-8, Biofluids, Inc., Rockville, Md.) with additives 0.33 nM retinoic acid, […] epinephrine and the antibiotic combination, 1% penicillin/streptomycin, on plates pre-coated with coating media containing 29 μg/ml collagen (Vitrogen: Collagen Corp., Palo Alto, Calif.), 10 μg/ml bovine serum albumin (Biofluids, Rockville, Md.), and 10 μg/ml fibronectin (Calbiochem, La Jolla, Calif.) for 5 min. HAEC obtained by bronchial brushing were cultured in serum-free Lechner and […] media (LHC8) on plates pre-coated with coating media ([…], et al., Cancer Res 1988, 48:1904-1909). […] T. Baker Inc, […], et al., FASEB J 2001, 15:70-78), or hydrogen peroxide (Sigma, St. Louis, Mo.) in a dose and time dependent manner. 293T cells, a clone of 293 (human embryonic kidney fibroblast cells) that expresses the Simian virus 40 large-T antigen, were maintained in DMEM (Invitrogen) with 10% FCS. Antioxidant assays. Bronchial epithelial cells (BET1A) exposed to 5 µM 2-ME for 30 min to 24 h, or serum of asthmatic individuals, were assayed for glutathione (GSH), glutathione peroxidase (GPx), catalase, and SOD activity. SOD activity was determined by the rate of reduction of cytochrome c, with one unit (U) of SOD activity defined as the amount of SOD required to inhibit the rate of cytochrome c reduction by 50% (Nebot C, et al., Anal Biochem 1993, 214:442-451). The final reaction volume was 3 ml and included 50 mM potassium phosphate buffer, […] cytochrome c, 0.05 mM xanthine, and a 0.1 mM EDTA solution. Xanthine oxidase (Sigma, St Louis, Mo.) was added at a concentration sufficient to induce a 0.020 per minute change in absorbance at 550 nm. GSH levels were measured as previously described (Comhair S A, et al., Am J Respir Crit Care Med 1999, 159:1824-1829).

Series [1] has as its system BET1A cells. As to the kind of experiment: Apoptosis detection by Annexin V binding. Here is the method: Cell Culture. BET1A, a human bronchial epithelial cell line, was cultured in serum-free Lechner and […] medium (LHC-8, Biofluids, Inc., Rockville, Md.) with additives 0.33 nM retinoic acid, […] epinephrine and the antibiotic combination, 1% penicillin/streptomycin, on plates pre-coated with coating media containing 29 μg/ml collagen (Vitrogen: Collagen Corp., Palo Alto, Calif.), 10 μg/ml bovine serum albumin (Biofluids, Rockville, Md.), and 10 μg/ml fibronectin (Calbiochem, La Jolla, Calif.) for 5 min. HAEC obtained by bronchial brushing were cultured in serum-free Lechner and […] media (LHC8) on plates pre-coated with coating media ([…], et al., Cancer Res 1988, 48:1904-1909). […] T. Baker Inc, […], et al., FASEB J 2001, 15:70-78), or hydrogen peroxide (Sigma, St. Louis, Mo.) in a dose and time dependent manner. 293T cells, a clone of 293 (human embryonic kidney fibroblast cells) that expresses the Simian virus 40 large-T antigen, were maintained in DMEM (Invitrogen) with 10% FCS. Cell Viability and Apoptosis detection. Cell viability was assessed by bright-field microscopy using a trypan blue dye (0.4%) exclusion method. The mean survival was determined by examining four different low power fields. Annexin V binding was used to detect apoptotic cells as previously described (Trautmann A, et al., J Allergy Clin Immunol 2001, 108:839-846). Briefly, cells were incubated with 1.0 μg/mL annexin V-FITC and 2.5 μg/mL propidium iodide (BD Biosciences, Palo Alto, Calif.). The stained cells were analyzed with a FACScan (Becton Dickinson, San Jose, Calif.), using an argon ion laser at 488 nm and emission recorded at 520 nm with band pass and short pass filters. Gating was done on the forward angle and right angle light scatter only to exclude debris and cell clumps. […] The RFI was calculated using the ratio of the linearized mean fluorescence of the cell populations, as provided by the CellQuest software (Becton Dickinson, San Jose, Calif.). Apoptotic cells are identified as the Annexin positive-PI negative fraction.

In another series the test system is GSH. Nature of the series: Intracellular GSH in BET1A cells. As for the experimental part:
Antioxidant assays. Bronchial epithelial cells (BET1A) exposed to 5 µM 2-ME for 30 min to 24 h, or serum of asthmatic individuals, were assayed for glutathione (GSH), glutathione peroxidase (GPx), catalase, and SOD activity. SOD activity was determined by the rate of reduction of cytochrome c, with one unit (U) of SOD activity defined as the amount of SOD required to inhibit the rate of cytochrome c reduction by 50% (Nebot C, et al., Anal Biochem 1993, 214:442-451). The final reaction volume was 3 ml and included 50 mM potassium phosphate buffer, […] cytochrome c, 0.05 mM xanthine, and a 0.1 mM EDTA solution. Xanthine oxidase (Sigma, St Louis, Mo.) was added at a concentration sufficient to induce a 0.020 per minute change in absorbance at 550 nm. GSH levels were measured as previously described (Comhair S A, et al., Am J Respir Crit Care Med 1999, 159:1824-1829).

The next series concerns caspase-3. As to the kind of experiment: Caspase-3-like enzyme activity in BET1A cells. The conditions noted are these: time dependent. Here is the method:
Cell Culture. BET1A, a human bronchial epithelial cell line, was cultured in serum-free Lechner and LaVeck medium (LHC-8, Biofluids, Inc., Rockville, Md.) with additives 0.33 nM retinoic acid, […] epinephrine and the antibiotic combination, 1% penicillin/streptomycin, on plates pre-coated with coating media containing 29 μg/ml collagen (Vitrogen: Collagen Corp., Palo Alto, Calif.), 10 μg/ml bovine serum albumin (Biofluids, Rockville, Md.), and 10 μg/ml fibronectin (Calbiochem, La Jolla, Calif.) for 5 min. HAEC obtained by bronchial brushing were cultured in serum-free Lechner and LaVeck media (LHC8) on plates pre-coated with coating media (Reddel R R, et al., Cancer Res 1988, 48:1904-1909). To evaluate oxidant stress and antioxidants in apoptotic events, BET-1A cells were stimulated at 70% confluence with SOD inhibitor, 2-Methoxyoestradiol (2-ME) (Sigma, St Louis, Mo.), or pyrogallol, a superoxide generating compound (J. T. Baker Inc, Phillipsburg, N.J.) (Comhair S A, et al., FASEB J 2001, 15:70-78), or hydrogen peroxide (Sigma, St. Louis, Mo.) in a dose and time dependent manner. […]
Caspase-3-like enzyme activity. Caspase-3-like activity was measured by a […] assay (BD PharMingen, San Diego, Calif.). […] AMC fluorescence is quantified by UV spectrofluorometry with an excitation wavelength of 380 nm and an emission wavelength range of 420-460 nm.

A further series concerns BAX. As to the kind of experiment: BAX levels by Western blot. The conditions noted are these: BET1A cells. As for the experimental part:
(§1) Cell Culture. BET1A, a human bronchial epithelial cell line, was cultured in serum-free Lechner and LaVeck medium (LHC-8, Biofluids, Inc., Rockville, Md.) with additives 0.33 nM retinoic acid, […] epinephrine and the antibiotic combination, 1% penicillin/streptomycin, on plates pre-coated with coating media containing 29 μg/ml collagen (Vitrogen: Collagen Corp., Palo Alto, Calif.), 10 μg/ml bovine serum albumin (Biofluids, Rockville, Md.), and 10 μg/ml fibronectin (Calbiochem, La Jolla, Calif.) for 5 min. HAEC obtained by bronchial brushing were cultured in serum-free Lechner and LaVeck media (LHC8) on plates pre-coated with coating media (Reddel R R, et al., Cancer Res 1988, 48:1904-1909). To evaluate oxidant stress and antioxidants in apoptotic events, BET-1A cells were stimulated at 70% confluence with SOD inhibitor, 2-Methoxyoestradiol (2-ME) (Sigma, St Louis, Mo.), or pyrogallol, a superoxide generating compound (J. T. Baker Inc, Phillipsburg, N.J.) (Comhair S A, et al., FASEB J 2001, 15:70-78), or hydrogen peroxide (Sigma, St. Louis, Mo.) in a dose and time dependent manner. 293T cells, a clone of 293 (human embryonic kidney fibroblast cells) that expresses the Simian virus 40 large-T antigen, were maintained in DMEM (Invitrogen) with 10% FCS.
(§2) Western Blot Assay. […] Total protein was measured by using the Coomassie protein assay (Pierce, Rockford, Ill.). […]

The next series deals with SOD protein. Nature of the series: SOD protein in treated BET1A cells. As for the experimental part:
as §1, §2

A further series concerns BET1A-cells. As to the kind of experiment: Tyrosine nitrated proteins in BET1A cells (anti-nitrotyrosine Western, 2D gel). As for the experimental part: Western Blot Assay. Airway epithelial cells freshly obtained by bronchoscopic brushing from asthmatics and healthy controls, or BET1A cells, were suspended in buffer (3 mM dithiothreitol, 5 μg/ml aprotinin, 1 μg/ml leupeptin and pepstatin A, 0.1 mM PMSF, 1% NP40 and 40 mM Hepes pH 7.5) and cell lysate prepared by three cycles of freeze/thaw. Total protein was measured by using the Coomassie protein assay (Pierce, Rockford, Ill.). Whole cell lysate protein was denatured and reduced by treatment with buffer containing 0.05 M Tris (pH 6.8), 1% sodium dodecyl sulfate (SDS), 10% glycerol, 0.00125% bromphenol blue and 0.5% β mercaptoethanol for 3 minutes at 95° C. Total protein was separated by electrophoresis on a 10% SDS-polyacrylamide gel, and then electrophoretically transferred onto nitrocellulose (NitroBind EP4HY315F5, Fisher Scientific, Pittsburgh, Pa.) or Polyvinylidene Difluoride membrane (Pierce, Rockford, Ill.) for 1 h at 4° C. Membranes were incubated with blocking buffer [5% non fat dry milk in TBS (20 mM Tris-HCl (pH 7.0) and 137 mM NaCl) with 0.1% Tween] for 1 h at room temperature to block nonspecific binding and then probed with a primary antibody in blocking buffer overnight at 4° C. […]
Two dimentional gel electrophoresis. […] Total Protein was measured by using Coomassie protein assay (Pierce, Rockfod, Ill.). […]

The subject of series [2] is BET1A cells. As to the kind of experiment: Cell viability by trypan blue exclusion.
Method: BET1A, a human bronchial epithelial cell line, was cultured in serum-free Lechner and LaVeck medium (LHC-8, Biofluids, Inc., Rockville, Md.) with additives 0.33 nM retinoic acid, 2.75 mM epinephrine and the antibiotic combination, 1% penicillin/streptomycin, on plates pre-coated with coating media containing 29 μg/ml collagen (Vitrogen: Collagen Corp., Palo Alto, Calif.), 10 μg/ml bovine serum albumin (Biofluids, Rockville, Md.), and 10 μg/ml fibronectin (Calbiochem, La Jolla, Calif.) for 5 min.
For another series, the system named is MnSOD. As to the kind of experiment: MnSOD silencing by siRNA in 293T cells, caspase-3 activity. The conditions noted are these: 48 h after transfection. As for the experimental part:
Caspase-3-like enzyme activity. Caspase-3-like activity was measured by a […] assay (BD PharMingen, San Diego, Calif.). This assay measures active caspase-3 binding to fluorogenic Ac-DEVD-AMC substrate and its cleavage to release the fluorescent AMC. AMC fluorescence is quantified by UV spectrofluorometry with an excitation wavelength of 380 nm and an emission wavelength range of 420-460 nm.
Transfection of siRNA MnSOD. MnSOD siRNA was synthesized by Ambion (Austin, Tex.). The sense and antisense MnSOD siRNA were 5-GGAACAACAGGCCUUAUUCtt-3 (sense) and 5-GAAUAAGGCCUGUUGUUCCtt-3 (antisense). Silencer™ Negative control #1 siRNA (siRNA control) (Ambion, Austin Tex.) was used as a control. 293T-cells, at 60% confluence in […] plates, were transfected in serum-free medium (DMEM, Invitrogen, Carlsbad Calif.) by using lipofectamine reagent (Invitrogen, Carlsbad Calif.) according to the manufacturer's instructions. For the silencing experiments, cells were transfected with […] of MnSOD siRNA or with 50 nM of Silencer™ Negative Control #1 siRNA. 48 h after transfection, cells were washed, trypsinized and harvested for evaluation of mRNA, protein expression, and caspase-3 activity.

`Oc1cccc(O)c1O` [pyrogallol]: the SOD activity result in the series with SOD is reported as “loss of SOD activity”. In the series with BET1A cells [1], the apoptosis result is recorded as “increased apoptosis”.
In the case of `COc1cc2c(cc1O)CC[C@@H]1[C@@H]2CC[C@]2(C)[C@@H](O)CC[C@@H]12` [2-ME, 2-Methoxyoestradiol], in the series on GSH, the “intracellular GSH” value is “rapid depletion of intracellular GSH”. The caspase-3 activity entry in the series on caspase-3 is reported as “significantly increased”. In the series with BAX, the BAX levels result is “upregulation of BAX levels”. The “blocked the activity of SOD” value in the series on SOD (5 μM, 3 h, p=0.004) is listed as “up to 86%”. Also, the SOD protein entry in the series with SOD protein is listed as “did not cause a decrease of SOD protein”. In the series on BET1A-cells, the tyrosine nitrated proteins result is given as “increase in tyrosine nitrated proteins”. Also, the “cell viability (trypan blue)” value in the series on BET1A cells [2] is listed as “decrease in cell viability”. For the same compound, the “apoptotic cells (Annexin V staining)” value in the series with BET1A cells [1] was “increase in apoptotic cells as early as 17 h”.
Take “MnSOD siRNA: siRNA, sense 5-GGAACAACAGGCCUUAUUCtt-3, antisense 5-GAAUAAGGCCUGUUGUUCCtt-3, synthesized by Ambion (sense GGAACAACAGGCCUUAUUCTT; antisense GAAUAAGGCCUGUUGUUCCTT; 3' tt overhangs, chemistry not given here, further chemistry not given here)”: the caspase-3 activation entry with MnSOD was “caspase-3 activation”.
Consider `OO` [H202, hydrogen peroxide], for which the SOD activity entry with SOD is listed as “loss of SOD activity”. Further, the apoptosis result in the series with BET1A cells [1] is on record as “increased apoptosis”.

For the origin of these results see US20110165594A1, “SYSTEMIC MARKERS FOR ASTHMA AND ANALOGOUS DISEASES” (THE CLEVELAND CLINIC FOUNDATION, priority 2005, published 2011).
